Laboratory results published in patent US9000027B2, “Chk1 suppresses a caspase-2 apoptotic response to DNA damage that bypasses p53, bcl-2 and caspase-3” (Dana-Farber Cancer Institute, Inc., priority 2008, dated 2015).
“Also recorded” adds a separate entry of the source.

Experiments:
p53 mutant embryos = experiment: Live acridine orange (AO) assay of IR-induced cell death in inhibitor-treated p53 mutant embryos; type: in vivo, zebrafish
Text: Chk1 inhibitors hold considerable promise in cancer therapy, as they are expected to synergize with genotoxic agents to kill tumor cells lacking functional p53, without affecting normal cells (Kawabe, 2004; Zhou and Bartek, 2004). […] Gö6976 has not been tested in vivo in a vertebrate model system. We therefore evaluated it as well as specific Chk2 and ATM inhibitors in the zebrafish system. Drug toxicity was monitored by scoring the AO reactivity of inhibitor-treated, but non-irradiated, p53^+/+ embryos (left column in FIG. 8A). Unless otherwise indicated, the inhibitors were applied at 18 hpf (that is, immediately before IR) for a total of 6 hours.
Live zebrafish embryos were dechorionated in pronase (2.0 mg/mL in egg water) for 3 to 5 min and rinsed five times in egg water at 18 hpf. Embryos were then γ-irradiated (12.5 Gy) using a ^137Cs-irradiator (Gammacell 1000) at 18 hr post-fertilization (hpf). At 24 hpf, embryos were incubated in […] Acridine Orange (AO; Sigma A-6014) in egg water for 30 min at 28.5° C., followed by 3 quick rinses and three 10-min washes in egg water. 5-10 AO-treated embryos were anesthetized in Tricaine ([…]; 3-amino benzoic acid ethylester from Sigma, A-5040) and mounted laterally on a glass slide in warm 0.5% agarose in egg water by streaking a thin layer of the warm agarose across the surface of the slide, and gently pulling the embryos across the agar with a transfer pipette. Lateral images of each zebrafish were acquired on a Zeiss Axioplan2 fluorescence microscope (5× lens), using OpenLab software and a Hammamatsu C4742-95 digital camera. All images were then converted to 8-bit grayscale in NIH ImageJ using the Image>Type>8-bit command. Next, we cropped the images using the Polyonal Selection tool and the Image>Crop functions to include only the trunk of the animal from the head until the beginning of the yolk tube (MO screen; FIG. 1B) or along the entire spinal cord (epistasis analyses; FIGS. 6A & 6D). The area outside of the selected region of interest was cleared using the Edit>Clear Outside command to create a distinct boundary around the area of interest (this is important as it allows the area of interest to be precisely selected after applying the threshold). Next, we split the acquired images into features of interest and background using the Image>Adjust>Threshold function in NIH ImageJ. We then set the maximum threshold of each image to 255 (the lower slide bar in the Threshold window), and adjusted the minimum threshold to the optimized threshold (see below). The threshold was applied using the Black & White display option, with the following Lut options applied; Thresholded pixels to foreground color; Remaining pixels to background color and Black foreground, white background. […] Next, we re-selected the region of interest on the thresholded image, following the bounded image carefully, and analyzed the pixels of the image using the Analyze>Analyze Particles function. The Minimum Size was set to 1px, the Maximum Size was set to the maximum value of 999999 and the Masks option was selected under the Show pull-down menu. The following extended options were also selected: Display Results; Clear Results; Summarize, Size Distribution and Record Starts. If selected by default, the Exclude on Edges option was deselected. The Area Fraction for each image selection was taken from the Summary window, which is the percentage of pixels in the selection that were black. To ensure valid comparisons of the AO labeling results across all experiments, we quantitatively determined a baseline Area Fraction across a large set of simultaneously irradiated and processed p53^+/+ embryos. […] This analysis yielded a mean value for the total labeled surface area of ˜20% (see FIG. 1B, light gray bar). We included at least 6 p53^+/+ non-injected control embryos in all subsequent AO-labeling experiments. […]

[1] = test system: Tg(rag2:EGFP-bcl-2) larvae; experiment: T-cell radioresistance in Tg(rag2:EGFP-bcl-2) larvae; type: in vivo, zebrafish
Text: To test this notion in vivo, we exploited a zebrafish transgenic line expressing a stable EGFP-bcl-2 fusion transgene under control of the rag2 promoter (Langenau et al., 2005). Such Tg(rag2: EGFP-bcl-2) larvae are characterized by highly radioresistant T- and B-cells at 9 dpf. […] Together with our human cell culture studies, our in vivo analysis of Gö6976 in zebrafish raises the remarkable possibility that tumors disrupting p53 or its attendant downstream pathway—in other words, most human cancers—will respond favorably to Chk1 inhibitors.
Immediately before IR, 18-hpf embryos were dechorionated and transferred to fresh egg water containing 1% DMSO, with or without the following inhibitors at indicated final concentrations: KU55933 (10 μM; Sigma) (Hickson et al., 2004); Chk2 Inhibitor II (10 μM; Calbiochem) (Arienti et al., 2005); Gö6976 (1 μM; Calbiochem) (Kohn et al., 2003). Unless stated otherwise, embryos were exposed to the inhibitors for 6 hr, transferred to fresh egg water, rinsed five times for 5 min, and labeled with AO. For experiments with Tg(rag2:EGFP-bcl-2) larvae, larvae were incubated in the inhibitor solution at 4 dpf, irradiated at 5 dpf, rinsed at 6 dpf, incubated in fresh inhibitor for an additional 72 hr, and mounted live at 9 dpf for fluorescence microscopic analysis of EGFP expression.

HeLa cells = experiment: Clonogenic survival assay after IR; type: cell-based, human; conditions: Gö6976 500 nM from 24 hbIR
Protocol: Clonogenic assays were performed as described (Franken et al., 2006). Briefly, the cells were plated in 6-cm dishes, treated with Gö6976 followed by IR and cultured for 2 weeks. The medium was then removed, and the cells were rinsed by PBS and incubated with a mixture of 6.0% glutaraldehyde and 0.5% crystal violet (Sigma-Aldrich, St Louis, Mo., USA) for 30 min at room temperature. The dishes were washed with water, and colonies consisting of at least 50 cells were counted.

Structure (SMILES): Cn1c2ccccc2c2c3c(c4c5ccccc5n(CCC#N)c4c21)CNC3=O [Gö6976]
- Gö6976-treated p53 mutants showing a marked IR-response recovery (p53 mutant embryos; 1 μM, 12.5 Gy IR at 18 hpf, n=210): 95%
- radiosensitization of p53 mutants (IR-induced AO labeling) (p53 mutant embryos; 12.5 Gy at 18 hpf, Gö6976 1 μM, KU55933 10 μM, Chk2 Inhibitor II 10 μM, 6 hr): restored a complete response to IR; also recorded: restored IR-induced cell death with complete penetrance
- exposure immediately after IR sufficient to phenocopy chk1 MO knockdown (p53 mutant embryos; p53 mutant embryos): 1.5 h
- AO staining response versus p53 mutant response (p53 mutant embryos; p53 mutants treated with Gö6976 for 6 hours, IR): ~500 fold
- larvae with T-cell radioresistance suppressed ([1]; 15 Gy IR at 5 dpf, Gö6976 for 5 days from 4 dpf, scored 9 dpf, n=26, DMSO: none (n=28)): 58%
- adverse effects of systemic treatment ([1]; larvae, 5 days exposure): without any apparent adverse effects
- clonogenic radiosensitization (HeLa cells; 2 Gy): inability of Gö6976 to significantly radiosensitize the cells
- reduction in number of colonies (HeLa cells; 3.2 Gy, colonies counted 14 dpIR): 50%
